What all share (format): binding
Test [1] addresses T1, human MDM2 protein (amino acids 2-188) (Homo sapiens (Human), UniProt Q00987). Kind of test: TR-FRET assay, p53-MDM2 Assay 1. Conditions: 1.25 nM MDM2-biotinylated, 10 nM Cy5-p53 peptide. On the procedure:
(§1) The inhibition of p53-MDM2 and p53-MDM4 interactions is measured by time resolved fluorescence energy transfer (TR-FRET). Fluorescence energy transfer (or Foerster resonance energy transfer) describes an energy transfer between donor and acceptor fluorescent molecules. For this assay, human MDM2 protein (amino acids 2-188) and human MDM4 protein (amino acids 2-185), tagged with a C-terminal biotin moiety, are used in combination with a Europium labeled streptavidin (Perkin Elmer, Inc., Waltham, Mass., USA) serving as the donor fluorophore. The p53 derived, Cy5 labeled peptide Cy5-TFSDLWKLL (p53 aa18-26) is the energy acceptor. Upon excitation of the donor molecule at 340 nm, binding interaction between MDM2 or MDM4 and the p53 peptide induces energy transfer and enhanced response at the acceptor emission wavelength at 665 nm. Disruption of the formation of the p53-MDM2 or p53-MDM4 complex due to an inhibitor molecule binding to the p53 binding site of MDM2 or MDM4 results in increased donor emission at 620 nm. The ratiometric FRET assay readout is calculated from the raw data of the two distinct fluorescence signals measured in time resolved mode (fluorescence 665 nm/fluorescence 620 nm×1000).
(§2) After addition of 1.25 nM MDM2-biotinylated or 2.5 nM MDM4-biotinylated (internal preparations), and 0.625 nM Europium labeled streptavidin (Perkin Elmer), the solution is pre-incubated for 15 minutes at room temperature, then 10 nM Cy5-p53 peptide (internal preparation) is added before an incubation at room temperature for 15 minutes prior to reading the plate. For measurement of samples, a Victor II microplate reader (Perkin Elmer) is used with the following settings: Excitation 340 nm, Emission Donor 620 nm and Emission Acceptor 665 nm. IC50 values are calculated by curve fitting using XLfit. If not specified, reagents are purchased from Sigma-Aldrich Chemie GmBH, Buchs, Switzerland.
(§3) This assay was used to evaluate compounds displaying inhibition of p53-MDM2 interaction and p53-MDM4 interaction at IC50s of 0.005 to 50 μM (p53-MDM2 Assay 1 and p53-MDM4 Assay 1, respectively). For selected compounds displaying IC50s between […] on MDM2, a slightly modified assay is used with the following adaptations: 0.1 nM MDM2, 0.1 nM Europium labeled streptavidin and Tecan genios Pro is used as a microplate reader for the fluorescence measurements (p53-MDM2 Assay 2).
For orientation: TR-FRET usually uses a lanthanide donor and a delayed reading to cut background.

Test [2] deals with human MDM4 protein (amino acids 2-185) (Homo sapiens (Human), UniProt O15151). As to the kind of experiment: TR-FRET assay, p53-MDM4 Assay 1. Conditions: 2.5 nM MDM4-biotinylated, 10 nM Cy5-p53 peptide. On the procedure: as §1, §2, §3
Chain of human MDM4 protein (amino acids 2-185) (O15151 2-185): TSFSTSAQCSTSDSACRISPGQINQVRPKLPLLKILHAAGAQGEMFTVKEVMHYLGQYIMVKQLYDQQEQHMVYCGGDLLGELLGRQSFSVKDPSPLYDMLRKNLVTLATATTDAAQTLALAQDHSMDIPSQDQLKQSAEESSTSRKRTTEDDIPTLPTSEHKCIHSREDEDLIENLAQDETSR
Test [3] concerns the target T1, human MDM2 protein (amino acids 2-188). As to the kind of experiment: TR-FRET assay, p53-MDM2 Assay 2 (modified). The conditions noted are these: TR-FRET; 0.1 nM MDM2, 0.1 nM Europium labeled streptavidin, Tecan genios Pro reader; read-out: IC50 p53-MDM2 Assay 2. In outline:
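Biotinylated human MDM2 (aa 2–188, 1.25 nM) was preincubated 15 min at room temperature with 0.625 nM Eu-streptavidin, then 10 nM Cy5-p53 peptide (aa 18–26) added for 15 min. TR-FRET ratio 665/620 nm (excitation 340 nm) was read; IC50 came from curve fitting.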

From patent US9365576B2, “Pyrrolopyrrolidinone compounds” (Novartis AG, priority 2012, dated 2016) come the findings set out here.

The term IC50 denotes the midpoint of a concentration-inhibition curve.

T1 sequence (Q00987 2-188): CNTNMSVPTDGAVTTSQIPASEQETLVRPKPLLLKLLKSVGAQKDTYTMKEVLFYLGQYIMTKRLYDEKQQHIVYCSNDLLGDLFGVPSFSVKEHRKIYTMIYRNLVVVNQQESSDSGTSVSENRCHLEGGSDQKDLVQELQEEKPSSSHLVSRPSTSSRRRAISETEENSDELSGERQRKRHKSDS

With `COc1ccccc1-c1cc2c(n1C(C)C)C(c1ccc(Cl)cc1)N(c1cc(Cl)ccc1C)C2=O` (stereo not drawn) [Example 9, 5-(5-Chloro-2-methyl-phenyl)-6-(4-chloro-phenyl)-1-isopropyl-2-(2-methoxy-phenyl)-5,6-dihydro-1H-pyrrolo[3,4-b]pyrrol-4-one], the results for the half-maximal inhibitory concentration (IC50) in test [1], in test [2] and in test [3] were 0.6 nM, 4030 nM and 0.298 nM, respectively.
As to `CNC(=O)c1ccc(OC)c(-c2cc3c(n2C(C)C)[C@H](c2ccc(Cl)cc2C)N(c2cc(Cl)ccc2C)C3=O)c1` [Example 32, 3-[(S)-5-(5-Chloro-2-methyl-phenyl)-6-(4-chloro-2-methyl-phenyl)-1-isopropyl-4-oxo-1,4,5,6-tetrahydro-pyrrolo[3,4-b]pyrrol-2-yl]-4-methoxy-N-methyl-benzamide], the half-inhibitory concentration (IC50) in test [1] came out at 0.5 nM; in test [2] it was 264 nM; in test [3], 0.094 nM.
For `COc1ccc(C(=O)O)cc1-c1cc2c(n1C(C)C)C(c1ccc(Cl)cc1)N([C@H]1CC[C@H](O)CC1)C2=O` (stereo partly drawn) [Example 65, 3-[6-(4-Chloro-phenyl)-5-(trans-4-hydroxy-cyclohexyl)-1-isopropyl-4-oxo-1,4,5,6-tetrahydro-pyrrolo[3,4-b]pyrrol-2-yl]-4-methoxy-benzoic acid], the IC50 was determined as 12.3 nM in test [1], 8790 nM in test [2] and 4.91 nM in test [3].
Consider `CNC(=O)c1ccc(OC)c(-c2cc3c(n2C(C)C)C(c2ccc(Cl)cc2)N(c2cc(Cl)ccc2C)C3=O)c1` (stereo not drawn) [Example 10, 3-[5-(5-Chloro-2-methyl-phenyl)-6-(4-chloro-phenyl)-1-isopropyl-4-oxo-1,4,5,6-tetrahydro-pyrrolo[3,4-b]pyrrol-2-yl]-4-methoxy-N-methyl-benzamide], for which the half-maximal inhibitory concentration (IC50) in test [1] was found to be 0.9 nM; in test [2], 478 nM; in test [3] it was 0.116 nM.
Consider `COc1nc(N)ncc1-c1cc2c(n1C(C)C)C(c1ccc(Cl)cc1)N([C@H]1CC[C@H](O)CC1)C2=O` (stereo partly drawn) [Example 68, 2-(2-Amino-4-methoxy-pyrimidin-5-yl)-6-(4-chloro-phenyl)-5-(trans-4-hydroxy-cyclohexyl)-1-isopropyl-5,6-dihydro-1H-pyrrolo[3,4-b]pyrrol-4-one], for which the IC50 in test [1] amounted to 12.6 nM; in test [2] it was 7860 nM; in test [3], 14.2 nM.
